Assay results published in PMC5430599, “Antiplasmodial dihetarylthioethers target the coenzyme A synthesis pathway in Plasmodium falciparum erythrocytic stages” (Malaria Journal, 2017).

Each compound was assayed on human embryonic kidney (HEK-293) cells (assay: Cytotoxicity assay: human HEK-293 cell line (resazurin)). Conditions: Homo sapiens, HEK293; cytotoxicity, 72 h; read-out: IC50 [µM], HEK-293.
Type: cell-based
Protocol: Cytotoxicity against human embryonic kidney (HEK-293) cells was assessed as previously described. […] Cells were detached using Accutase treatment, then seeded into black clear-bottom 384-wells fluorescence microplates (Greiner), at a cell density of 44,000 cells/mL in 45 µL/well, using a Benchtop liquid dispenser (Thermo Fisher Multidrop). After seeding, the cells were brought back to the incubator and allowed to settle and reattach overnight. […] Plates were incubated at the standard condition above for 72 h. At the end of the incubation the medium in each well was replaced with 1 mM resazurin, and the plates were read using a multilabel microplate reader (PerkinElmer Envision) at 530 nm excitation and 595 nm emission wavelengths after a further 6 h incubation. Inhibition data was generated using Office Excel 2013 (Microsoft). IC50 values were calculated by fitting a four-parameter nonlinear regression model using Prism v.6.0 (Graphpad Software Inc., La Jolla, CA, USA).

Question: How did the IC50 turn out when `Nc1nnc(Sc2ncnc3sccc23)s1` [Compound 8f] was run?
Answer: The IC50 was > 4 µM.

Question: How did the IC50 turn out when `c1csc(Sc2ncnc3sccc23)n1` [Compound 8d] was run?
Answer: The IC50 was > 10 µM.

Question: How did the IC50 turn out when `c1ccc2[nH]c(Sc3ncnc4sccc34)nc2c1` [Compound 8g] was run?
Answer: Its IC50 is > 10 µM.

Question: For `c1coc(-c2nnc(Sc3ncnc4sccc34)o2)c1` [Compound 3a], which IC50 is on record?
Answer: Its IC50 is > 10 µM.

Question: How did the IC50 turn out when `c1cnc2[nH]c(Sc3ncnc4sccc34)nc2c1` [Compound 8k] was run?
Answer: Its IC50 is > 20 µM.

Question: Which IC50 does the source give for `c1coc(Sc2ncnc3sccc23)n1` [Compound 8e] here?
Answer: The IC50 was > 10 µM.

Question: How did the IC50 turn out when `Cn1ccnc1Sc1ncnc2sccc12` [Compound 8c] was run?
Answer: Its IC50 is > 40 µM.

Same assay, conditions: IC50 HEK-293 / IC50 3D7

Question: Which “selectivity HEK-293 vs 3D7 parasites” value does the source give for `c1coc(Sc2ncnc3sccc23)n1` [Compound 8e] here?
Answer: The value was > 133 fold.

What follows are compounds tested on asexual erythrocytic stages of transgenic NF54-luc P. falciparum (assay: Luciferase-based viability screening for anti-malarial activity). Conditions: 3 µM, 48 h; >50% inhibition of viability rated active.
Type: cell-based, Plasmodium falciparum
Protocol: Asexual erythrocytic stages of transgenic NF54-luc P. falciparum were used for the luciferase-based viability assay. These parasites constitutively express high levels of luciferase. The parasites were cultured as described previously. Parasite culture with parasitaemia of 0.5–1% was dispensed in triplicate into white 96-well flat-bottom plates (each well contains 250 µL) (NUNC, Roskilde, […], 90% N2, 5% CO2, and 5% O2). 0.01% DMSO was included in the untreated infected RBC cultures as negative control, since the compounds stock initially was diluted in DMSO and each treatment well also contained 0.01% DMSO. Subsequently, 100 µL RPMI1640 media was removed from each well and a 100 µL volume of the Bright-Glo® substrate solution added to each well. The resultant cleavage product of the reaction, light, was measured using a FLUOROSKAN FL luminometer (Thermo), to ascertain viable parasites. Untreated cultures were used as negative controls and to calculate the inhibition rate (0% inhibition of parasite growth). Blasticidin (Sigma-Aldrich, St. Louis, MO, USA), used for selection of transfected parasites, was included as a positive control on each plate and gave >90% inhibition of parasite growth at concentration 2 µg/mL. Compounds with >50% inhibition of viability were rated as actives. Experiments were performed in triplicate and were repeated at least twice.

Question: Which “% inhibition, PfNF54-Luc at 3 µM” value does the source give for `c1coc(-c2nnc(Sc3ncnc4sccc34)o2)c1` [Compound 3a] here?
Answer: Its value is 80.8 ± 0.5%.

Same assay, conditions: Plasmodium falciparum, NF54, 48 h, read-out: % inhibition, PfNF54-Luc at 3 µM, 3 µM, 48 h; >50% inhibition of viability rated active

Question: How did the inhibition at 3 µM turn out when `Nc1nnc(Sc2ncnc3sccc23)s1` [Compound 8f] was run?
Answer: Its inhibition at 3 µM is 99.7 ± 0.1%.

Question: How did the inhibition at 3 µM turn out when `c1csc(Sc2ncnc3sccc23)n1` [Compound 8d] was run?
Answer: The inhibition at 3 µM was 99.9%.

Question: `c1ccc2[nH]c(Sc3ncnc4sccc34)nc2c1` [Compound 8g] was tested. Which inhibition at 3 µM did it give?
Answer: Its inhibition at 3 µM is 95 ± 1.1%.

Question: With `c1coc(-c2nnc(Sc3ncnc4sccc34)o2)c1` [Compound 3a] as the compound, how does the inhibition at 3 µM read?
Answer: Its inhibition at 3 µM is 80%.

Question: For `c1cnc2[nH]c(Sc3ncnc4sccc34)nc2c1` [Compound 8k], which inhibition at 3 µM is on record?
Answer: The inhibition at 3 µM was 98 ± 0.2%.

Question: `c1coc(Sc2ncnc3sccc23)n1` [Compound 8e] was tested. Which inhibition at 3 µM did it give?
Answer: Its inhibition at 3 µM is 99.5 ± 0.5%.

Question: For `Cn1ccnc1Sc1ncnc2sccc12` [Compound 8c], which inhibition at 3 µM is on record?
Answer: Its inhibition at 3 µM is 96.5 ± 1.6%.
